Measurements published in patent US7267990B2, “Chelation of charged and uncharged molecules with porphyrin-based compounds” (priority 2002, dated 2007).

Legend:
[1] = system: healthy female Balb/c mice; conditions: mouse, in vivo
Excerpt: So far we have determined maximum tolerated doses for compounds 4, 6, 16, 31, and 33 using healthy female Balb/c mice.

[2] = system: V79 hamster fibroblast cells; assay: Clonogenic cytotoxicity assay in V79 cells; format: cell-based; conditions: concentrations up to 200 μM
Protocol: Human glioblastoma U373 MG, hamster V79 fibroblast, and mouse melanoma B16 cells were obtained from the American Type Culture Collection. Rat gliosarcoma cells were kindly provided by the University of California at San Francisco Brain Tumor Research Group. All cells were maintained in log phase monolayer cultures with RPMI 1640 supplemented with 10% fetal bovine serum and 2 mM glutamine. We have also determined the cytotoxicity of porphyrins 4, 16, 18, and 31 in V79 hamster fibroblast cells using a clonogenic assay. For each of these porphyrins, we found CS50>300 μM, and we observed no toxicity (i.e., no effect on colony survival) at concentrations up to 200 μM.

[3] = system: rat 9 L gliosarcoma cells; assay: Dark cytotoxicity assay, 9L cells; format: cell-based; conditions: 24 hour exposure, concentrations up to 250 μM, read-out: IC50 (dark toxicity, inhibition of proliferation)
Protocol: (§1) Human glioblastoma U373 MG, hamster V79 fibroblast, and mouse melanoma B16 cells were obtained from the American Type Culture Collection. Rat gliosarcoma cells were kindly provided by the University of California at San Francisco Brain Tumor Research Group. All cells were maintained in log phase monolayer cultures with RPMI 1640 supplemented with 10% fetal bovine serum and 2 mM glutamine.
(§2) Cells were seeded in 96-well culture plates, and were allowed to settle and attach for 24-48 hours. Triplicate wells were then exposed to twofold serial dilutions of test compounds at concentrations up to 250 μM. Compounds 4, 6, 10, and 12 in crystalline form were carefully weighed and dissolved in 100% DMSO to prepare stock solutions. Subsequent dilutions were performed directly in the culture medium just before the medium was administered to cells. After short-term (2 hour) or long-term (24 hour) exposure, cells were washed, and the wells were refilled with fresh culture medium. For dark toxicity trials, cells were allowed to proliferate for an additional 48-72 hours. For phototoxicity trials, washed cells were irradiated for 10 minutes with broad spectrum (600-700 nm) red light, and were then returned to an incubator for 48-72 hours.

[4] = system: human U-373MG glioblastoma cells; assay: Dark cytotoxicity assay, U-373 MG cells; format: cell-based; conditions: 24 hour exposure, concentrations up to 250 μM, read-out: IC50 (dark toxicity, inhibition of proliferation)
Protocol: as §1, §2

| Substance | maximum tolerated dose [1] | toxicity (effect on colony survival) [2] | IC50 [3] [µM] | IC50 [4] [µM] |
| --- | --- | --- | --- | --- |
| 5,15-bis[bis-3,5-(1-methyl-o-carboranyl)methylphenyl]porphyrin [Compound 33] | exceeded 300 mg per kg of body weight | – | – | – |
| Zn(II)-meso-tetra[4-(1-methyl-nido-carboranyl)methylphenyl]porphyrin tetrapotassium salt [Compound 6] | exceeded 300 mg per kg of body weight | – | – | – |
| Zn(II)-meso-tetra[4-(nido-carboranyl)phenyl]porphyrin tetrapotassium salt [Compound 18] | – | no toxicity | – | – |
| meso-tetra[3-(1-methyl-nido-carboranyl)methylphenyl]porphyrin tetrapotassium salt [Compound 10] | – | – | ~150 | ~150 |
| meso-tetra[4-(1-methyl-nido-carboranyl)methylphenyl]porphyrin tetrapotassium salt [Compound 4] | exceeded 300 mg per kg of body weight | no toxicity | ~150 | ~150 |
| meso-tetra[4-(nido-carboranyl)phenyl]porphyrin tetrapotassium salt [Compound 16] | exceeded 300 mg per kg of body weight | no toxicity | – | – |
